In patent US20250352555A1, “METHOD OF INCREASING IMMUNE CELL ACTIVATION AND/OR TREATING CANCER USING DIBENZOXAZEPINONES” (VASCULAR THERAPEUTICS PTY LTD, priority 2022, published 2025):

Test system: A375 cells
Assay: Apoptosis, flow cytometry with Annexin V-FITC, A375
Type: cell-based, human
Conditions: 1 μM, 24 h
Method: Flow cytometry with Annexin V-FITC. Cells were seeded into 6 well plates in normal culture medium containing 10% FBS. After culturing overnight, the cells were incubated in complete medium containing vehicle, BT2 or SCH772984 at 1 μM and left for 24 h. The culture medium was removed and the cells were washed with PBS. Accutase (Stem Cell Technologies, cat. no. 07920) was used to detach the cells. The cells were then washed and centrifuged at 300 g for 5 min and resuspended at 1×10^6 cells/ml in 500 μl of 1× binding buffer (Annexin V-FITC Apoptosis Staining/Detection Kit, Abcam, cat. no. ab14085). The cells were transferred to 12×75 mm tubes and annexin V-FITC/propidium iodide (PI) was added and incubated for 5 min at 22° C. protected from light. Stained cell suspensions were analyzed by flow cytometry using a BD LSRFortessa X20.
The morphology of A375 and MeWo cells exposed to 1 μM of BT2 or SCH772984 for 24 h was also assessed.

CCOC(=O)Nc1ccc2c(c1)C(=O)N(CC)c1ccccc1O2 [BT2, (10-ethyl-11-oxo-10,11-dihydro-dibenzo[b,f][1,4]oxazepin-2-yl)-carbamic acid ethyl ester]
apoptosis (Annexin V-FITC+ PI−): increased apoptosis
